Assay results reported in patent US20090131481A1, “Transcription Factor Modulating Compounds and Methods of Use Thereof” (Paratek Pharmaceuticals, Inc., published 2009).
Where two headings read alike, the source gives them in different places.

Experiments:
E. coli UPEC strain C189 = experiment: Ascending pyelonephritis model of infection (Example 3); type: in vivo; settings: female CD1 mice, oral dosing at infection and once a day for 4 days, 5-day infection
uncut plasmid DNA = experiment: Qualitative agarose gel DNA intercalation assay; type: binding; settings: 100 ng uncut plasmid DNA, compared with a known DNA intercalator
SoxS [1] = biological target: T1, SoxS (Escherichia coli, UniProt P0A9E2); experiment: Chemiluminescence-based SoxS-DNA binding assay; set-up: made in house; species or system E. coli; settings: for EC50: dose response analysis (footnote c), read-out: in vitro SoxS activity: concentration necessary to inhibit DNA-protein binding by 50% (EC50)
T1 sequence (P0A9E2 1-107): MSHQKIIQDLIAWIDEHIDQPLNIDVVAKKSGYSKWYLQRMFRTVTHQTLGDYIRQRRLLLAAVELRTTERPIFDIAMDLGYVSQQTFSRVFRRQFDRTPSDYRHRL

LcrF (VirF) = LcrF (VirF) (Yersinia pestis, UniProt P28808); experiment: biochemical; type: binding, Y. pseudotuberculosis
LcrF (VirF), sequence (P28808 whole entry, looked up): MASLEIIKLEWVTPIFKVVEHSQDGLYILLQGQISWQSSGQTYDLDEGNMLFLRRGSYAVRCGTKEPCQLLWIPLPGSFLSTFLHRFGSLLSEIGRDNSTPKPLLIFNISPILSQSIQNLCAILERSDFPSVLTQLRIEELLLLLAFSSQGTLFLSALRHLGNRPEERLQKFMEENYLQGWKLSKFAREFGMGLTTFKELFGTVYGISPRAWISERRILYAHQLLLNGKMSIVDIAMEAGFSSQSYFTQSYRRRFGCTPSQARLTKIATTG

ExsA = biological target: T2, ExsA (Pseudomonas aeruginosa, UniProt P26993); experiment: Chemiluminescence-based ExsA-DNA binding assay; set-up: species or system P. aeruginosa
T2 construct: made in house
T2 sequence (P26993 1-278): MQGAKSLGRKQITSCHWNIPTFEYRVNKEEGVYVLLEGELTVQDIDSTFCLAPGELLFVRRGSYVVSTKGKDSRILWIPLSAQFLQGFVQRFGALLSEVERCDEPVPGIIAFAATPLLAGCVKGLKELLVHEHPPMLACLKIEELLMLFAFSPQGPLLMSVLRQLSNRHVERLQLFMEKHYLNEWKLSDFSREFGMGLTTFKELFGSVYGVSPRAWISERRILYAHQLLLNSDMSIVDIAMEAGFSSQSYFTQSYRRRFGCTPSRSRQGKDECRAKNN

SlyA = biological target: T3, SlyA (Escherichia coli, UniProt P0A8W2); experiment: biochemical; type: binding, E. coli
T3 sequence (P0A8W2 1-144): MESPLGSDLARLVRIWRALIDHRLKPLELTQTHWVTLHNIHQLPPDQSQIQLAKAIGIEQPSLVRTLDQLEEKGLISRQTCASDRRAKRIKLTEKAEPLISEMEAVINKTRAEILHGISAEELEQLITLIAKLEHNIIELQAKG

Y. pseudotuberculosis = experiment: microbe, parasite or virus in culture; settings: Yersinia pseudotuberculosis, J774, read-out: % Cytotoxicity
P. aeruginosa = P. aeruginosa cytotoxicity whole cell assay (J774 cells, LDH release); settings: relative to vehicle treated cells infected with wild type P. aeruginosa
SoxS [2] = biological target: T1, SoxS; experiment: Electrophoretic mobility shift assay (EMSA) with SoxS; type: binding; settings: 50 ug/ml compound, 5 nM SoxS
[3] = read-out: % Inhibition (SoxS binding to DNA)
[4] = Y. pseudotuberculosis VirF EC50
[5] = Table 11, subsequent assay, read-out: P. aeruginosa ExsA EC50
[6] = EC50 for inhibition of LcrF(VirF)-DNA binding
[7] = Table 7, cell-free system, read-out: ExsA EC50

## CN(C)c1ccc(-c2nc3ccc([N+](=O)[O-])cc3n2O)cc1 [BP]
E. coli UPEC strain C189
  Efficacy (log10 decrease in the CFU/g kidney tissue): *** (exhibited a 0-1.0 log decrease in CFU/g)
Uncut plasmid DNA
  ability to intercalate DNA: not found to intercalate DNA
SoxS [1]
  EC50: > 5 µM
SoxS [1]; [3]
  inhibition at 50 µg/mL: > 70%

## O=C(/C=C/c1ccc(F)cc1)Nc1ccc(-c2nc3ncc([N+](=O)[O-])cc3n2O)c(F)c1 [EH]
LcrF (VirF); [4]
  EC50: < 5 µM
ExsA; [5]
  EC50: < 5 µM
SlyA
  EC50: > 15.1 µM
Y. pseudotuberculosis
  activity at 50 µg/mL: < 75%
P. aeruginosa
  Cytotoxicity at 50 μg/mL Pseudomonas: * (reduced P. aeruginosa cytotoxicity to 99-75% of untreated, wild type levels at 50 mg/mL)

## O=C(Nc1ccc(-c2nc3ccc([N+](=O)[O-])cc3n2O)cc1)c1ccccc1 [A]
LcrF (VirF); [6]
  EC50: 10 to 25 µM
ExsA; [7]
  EC50: 10 to 25 µM
SoxS [1]; [3]
  inhibition at 50 µg/mL: > 70%

## CC(C)(C)C(=O)Nc1ccc(-c2nc3ccc([N+](=O)[O-])cc3n2O)cc1 [CK]
E. coli UPEC strain C189
  Efficacy (log10 decrease in the CFU/g kidney tissue): *** (exhibited a 0-1.0 log decrease in CFU/g)
SoxS [1]; compound screening concentration of 25 μg/ml (footnote d), read-out: in vitro SoxS activity: percent inhibition of DNA-protein binding
  inhibition at 25 µg/mL: > 70%

## CN(C)c1cccc(-c2nc3ccc([N+](=O)[O-])cc3n2O)c1 [BV]
SoxS [1]; [3]
  inhibition at 50 µg/mL: 0 to 29%

## CC(=O)Nc1ccc(-c2nc3ccc([N+](=O)[O-])cc3n2O)cc1 [CH]
SoxS [1]; [3]
  inhibition at 50 µg/mL: > 70%

## On1c(-c2ccccc2)nc2ccc(F)cc21 [AY]
SoxS [1]; [3]
  inhibition at 50 µg/mL: 0 to 29%

## COc1ccc2nc(-c3ccccc3)n(O)c2c1 [AZ]
SoxS [1]; [3]
  inhibition at 50 µg/mL: < 0%

## CC(=O)Nc1ccccc1-c1nc2ccc([N+](=O)[O-])cc2n1O [BX]
Uncut plasmid DNA
  ability to intercalate DNA: not found to intercalate DNA
SoxS [1]; [3]
  inhibition at 50 µg/mL: 30 to 69%

## CCCOn1c(-c2ccccc2)nc2ccc([N+](=O)[O-])cc21 [AR]
SoxS [1]; [3]
  inhibition at 50 µg/mL: < 0%

## COc1cc(F)ccc1C(=O)Nc1ccc(-c2nc3ccc([N+](=O)[O-])cc3n2O)cc1 [DE]
LcrF (VirF); [4]
  EC50: < 5 µM
ExsA; [5]
  EC50: < 5 µM
SlyA
  EC50: > 15.1 µM
Y. pseudotuberculosis
  activity at 50 µg/mL: 75 to 99%
P. aeruginosa
  Cytotoxicity at 50 μg/mL Pseudomonas: * (reduced P. aeruginosa cytotoxicity to 99-75% of untreated, wild type levels at 50 mg/mL)

## O=C(/C=C/c1ccc(F)cc1F)Nc1ccc(-c2nc3ccc([N+](=O)[O-])cc3n2O)cc1 [V]
LcrF (VirF); [6]
  EC50: < 10 µM
LcrF (VirF); [4]
  EC50: < 5 µM
ExsA; [7]
  EC50: < 10 µM
ExsA; [5]
  EC50: < 5 µM
SlyA
  EC50: > 15.1 µM

## CCc1cc(-c2nc3ccc([N+](=O)[O-])cc3n2O)ccc1NC(=O)/C=C/c1ccc(C)cc1 [DP]
LcrF (VirF); [4]
  EC50: < 5 µM
ExsA; [5]
  EC50: 5.1 to 15 µM
SlyA
  EC50: > 15.1 µM
Y. pseudotuberculosis
  activity at 50 µg/mL: < 75%
P. aeruginosa
  Cytotoxicity at 50 μg/mL Pseudomonas: * (reduced P. aeruginosa cytotoxicity to 99-75% of untreated, wild type levels at 50 mg/mL)

## Nc1ccc(-c2nc3ccc([N+](=O)[O-])cc3n2O)cc1 [BL]
SoxS [1]; [3]
  inhibition at 50 µg/mL: > 70%

## CC(=O)Nc1cccc(-c2nc3ccc([N+](=O)[O-])cc3n2O)c1 [BT]
SoxS [1]; [3]
  inhibition at 50 µg/mL: 30 to 69%

## O=[N+]([O-])c1ccc2nc(-c3ccc(Br)cc3)n(O)c2c1 [CA]
SoxS [1]; [3]
  inhibition at 50 µg/mL: 0 to 29%

## CCOC(=O)COn1c(-c2ccccc2)nc2ccc([N+](=O)[O-])cc21 [AP]
SoxS [1]; [3]
  inhibition at 50 µg/mL: < 0%

## COc1ccc(C(=O)Nc2ccc(-c3nc4ccc([N+](=O)[O-])cc4n3O)cc2)cc1 [B]
E. coli UPEC strain C189
  Efficacy (log10 decrease in the CFU/g kidney tissue): *** (exhibited a 0-1.0 log decrease in CFU/g)
LcrF (VirF); [6]
  EC50: 10 to 25 µM
ExsA; [7]
  EC50: > 25 µM
SoxS [1]; compound screening concentration of 50 μg/ml (footnote b), read-out: in vitro SoxS activity: percent inhibition of DNA-protein binding
  inhibition at 50 µg/mL: > 70%
Y. pseudotuberculosis
  activity at 50 µg/mL: < 75%

## O=[N+]([O-])c1ccc2nc(-c3ccco3)n(O)c2c1 [AU]
SoxS [2]
  activity against SoxS in vitro in an EMSA: very active
Uncut plasmid DNA
  ability to intercalate DNA: not found to intercalate DNA

## Nc1ccccc1-c1nc2ccc([N+](=O)[O-])cc2n1O [BN]
SoxS [1]; [3]
  inhibition at 50 µg/mL: 0 to 29%

## O=[N+]([O-])c1ccc2nc(-c3ccccc3)n(O)c2c1 [GB]
SoxS [1]; [3]
  inhibition at 50 µg/mL: 30 to 69%

## O=C(O)c1cccc(-c2nc3ccc([N+](=O)[O-])cc3n2O)c1 [BU]
E. coli UPEC strain C189
  Efficacy (log10 decrease in the CFU/g kidney tissue): *** (exhibited a 0-1.0 log decrease in CFU/g)
SoxS [1]
  EC50: > 5 µM

## O=C(O)CCn1c(-c2ccccc2)nc2ccc([N+](=O)[O-])cc21 [AO]
SoxS [1]; [3]
  inhibition at 50 µg/mL: < 0%

## CC(=O)c1ccc(/C=C/C(=O)Nc2ccc(-c3nc4ccc([N+](=O)[O-])cc4n3O)cc2)cc1 [AJ, (E)-3-(4-Acetyl-phenyl)-N-[4-(1-hydroxy-6-nitro-H-benzoimidazol-2-yl)-phenyl]-acrylamide]
LcrF (VirF); [6]
  EC50: 10 to 25 µM
LcrF (VirF); [4]
  EC50: < 5 µM
ExsA; [5]
  EC50: < 5 µM
SlyA
  EC50: > 15.1 µM
P. aeruginosa
  Cytotoxicity at 50 μg/mL Pseudomonas: ** (reduced P. aeruginosa cytotoxicity below 75% of untreated, wild type levels at 50 mg/mL)

## O=[N+]([O-])c1ccc2nc(-c3ccc(Oc4ccccc4)cc3)n(O)c2c1 [BW]
SoxS [1]; [3]
  inhibition at 50 µg/mL: 0 to 29%

## NC(=O)c1ccc2nc(-c3ccccc3)n(O)c2c1 [BB]
SoxS [2]
  activity against SoxS in vitro in an EMSA: moderately active
SoxS [1]; [3]
  inhibition at 50 µg/mL: 0 to 29%
